{
  "source": "paper PMC5599584",
  "about": "“Kinetic adaptation of human Myo19 for active mitochondrial transport to growing filopodia tips” (Scientific Reports, 2017)",
  "key": {"Acto·Myo19-3IQ [1]": {"biological_target": "T1, Acto·Myo19-3IQ (Homo sapiens, UniProt Q96H55)", "T1 sequence (Q96H55 whole entry, looked up)": "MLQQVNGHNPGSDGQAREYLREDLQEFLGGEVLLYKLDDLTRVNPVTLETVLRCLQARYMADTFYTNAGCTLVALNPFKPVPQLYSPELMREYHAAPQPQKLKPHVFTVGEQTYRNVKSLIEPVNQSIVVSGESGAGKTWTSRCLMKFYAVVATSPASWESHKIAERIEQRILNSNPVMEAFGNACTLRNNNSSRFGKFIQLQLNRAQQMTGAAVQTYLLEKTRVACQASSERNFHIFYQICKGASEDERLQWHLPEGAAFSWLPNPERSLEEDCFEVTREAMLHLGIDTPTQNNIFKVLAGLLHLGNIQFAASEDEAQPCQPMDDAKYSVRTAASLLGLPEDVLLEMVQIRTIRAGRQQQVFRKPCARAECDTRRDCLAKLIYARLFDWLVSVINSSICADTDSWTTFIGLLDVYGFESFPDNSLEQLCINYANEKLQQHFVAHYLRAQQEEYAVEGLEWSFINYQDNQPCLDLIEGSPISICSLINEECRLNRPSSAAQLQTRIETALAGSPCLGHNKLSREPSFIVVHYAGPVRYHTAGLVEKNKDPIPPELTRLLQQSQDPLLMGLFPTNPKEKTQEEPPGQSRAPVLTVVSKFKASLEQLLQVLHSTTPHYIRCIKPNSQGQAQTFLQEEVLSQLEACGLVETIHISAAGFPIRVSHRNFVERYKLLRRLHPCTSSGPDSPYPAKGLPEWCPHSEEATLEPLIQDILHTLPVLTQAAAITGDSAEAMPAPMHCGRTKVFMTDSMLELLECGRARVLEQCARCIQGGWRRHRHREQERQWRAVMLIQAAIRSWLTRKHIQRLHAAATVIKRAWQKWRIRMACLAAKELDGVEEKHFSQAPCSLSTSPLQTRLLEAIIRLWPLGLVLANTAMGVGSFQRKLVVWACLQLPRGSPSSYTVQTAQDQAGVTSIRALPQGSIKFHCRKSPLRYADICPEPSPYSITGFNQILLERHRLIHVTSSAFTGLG", "experiment": "biochemical"}, "Myo19-3IQ [2]": {"biological_target": "T2, Myo19-3IQ (Homo sapiens, UniProt Q96H55)", "T2 construct": "with Calmodulin", "T2 sequence (Q96H55 whole entry, looked up)": "as above", "format": "biochemical", "conditions": "no actin; 250 µM ATP (initial)"}, "Acto·Myo19-3IQ [3]": {"biological_target": "T1, Acto·Myo19-3IQ", "experiment": "stopped-flow mant FRET, association kinetics", "format": "binding", "set-up": "with Calmodulin; Actin, alpha skeletal muscle (rabbit or chicken skeletal muscle F-actin)", "conditions": "KMg50 buffer pH 7.3, 25 °C; bound to F-actin; labelled compound"}, "Myo19-3IQ [4]": {"biological_target": "T2, Myo19-3IQ", "experiment": "stopped-flow mant FRET / single turnover", "format": "binding", "conditions": "read-out: K 1T"}, "[5]": {"biological_target": "F-actin (actin filaments from rabbit or chicken skeletal muscle) (rabbit or chicken) (UniProt P68135)"}},
  "data": [
    {"compound": "Nc1ncnc2c1ncn2[C@@H]1O[C@H](COP(=O)(O)OP(=O)(O)OP(=O)(O)O)[C@@H](O)[C@H]1O", "note": "[ATP]", "values": [
      {"measurement": "Kd", "setting": "Acto·Myo19-3IQ [1]", "result": "476 ± 116", "unit": "µM"},
      {"measurement": "quenched-flow Pi burst; NADH-coupled ATPase", "setting": "Myo19-3IQ [2]", "result": "Myo19-3IQ (in the absence of actin) mixed with ATP yielded a Pi burst amplitude"}
    ]},
    {"compound": "CNc1ccccc1C(=O)O[C@H]1C[C@H](n2cnc3c(N)ncnc32)O[C@@H]1COP(=O)(O)OP(=O)(O)OP(=O)(O)O", "note": "[mT]", "values": [
      {"measurement": "stopped-flow mant FRET, association kinetics", "setting": "Acto·Myo19-3IQ [3]", "result": "mT bound similarly to Myo19-3IQ or Acto·Myo19-3IQ"},
      {"measurement": "Kd", "setting": "Myo19-3IQ [4]", "result": "~0.04", "unit": "µM"}
    ]},
    {"compound": "Myo19-3IQ (human Myo19 motor domain with three IQ light chain-binding motifs, with its associated calmodulin light chain) (from UniProt P0DP23 1-149) (complex)", "values": [
      {"measurement": "K ATPase: actin concentration at the half maximal steady-state ATPase activity (NADH-coupled assay, 1-100 µM F-actin)", "setting": "[5]", "result": 11.6, "unit": "µM"}
    ]}
  ]
}
